US10584115B2, “Substituted pyridine and pyrazine BMI-1 inhibitors” (PTC Therapeutics, Inc., priority 2013, dated 2020)
Like-named read-outs stand apart in the source and are kept apart here.

Test system: Bmi-1 protein
Experiment: Sandwich ELISA Assay (Bmi-1 protein level in HT-1080 cells after compound treatment)
Assay type: cell-based
Procedure, shortened: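 HT-1080 cells exposed to compounds for 40–48 h at 37 °C (0.5% DMSO final), then lysed. Bmi-1 in lysates measured by sandwich ELISA (mouse monoclonal capture, rabbit anti-Bmi-1 detection, HRP anti-rabbit, TMB), read at OD450 with OD570 reference against a recombinant Bmi-1 standard curve (0–8000 pg/mL).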

[1] = Table 1, Bmi-1 sandwich ELISA, read-out: ELISA EC50 value for Bmi-1 protein

Compound | EC50 [1] [nM] | EC50 (read-out: ELISA EC50 value for Bmi-1 protein, Table 1, Bmi-1 sandwich ELISA) [nM]
COc1ccc(Nc2cccc(-n3c(C)nc4ccc(F)cc43)n2)cc1 [Cpd 586, 6-(6-fluoro-2-methyl-1H-benzimidazol-1-yl)-N-(4-methoxyphenyl)pyridin-2-amine] | 1 to 10 | 
Cc1ccc(Nc2cccc(-n3c(C)nc4ccc(F)cc43)n2)cc1 [Cpd 587, 6-(6-fluoro-2-methyl-1H-benzimidazol-1-yl)-N-(4-methylphenyl)pyridin-2-amine] | 1 to 10 | 
Cc1nc2ccccc2n1-c1cccc(Nc2ccc(Cl)cc2)n1 [Cpd 606, N-(4-chlorophenyl)-6-(2-methyl-1H-benzimidazol-1-yl)pyridin-2-amine] | 100 to 3000 | 
Cc1nc2ccc(F)cc2n1-c1cccc(Nc2ccc(Cl)cc2)n1 [Cpd 608, N-(4-chlorophenyl)-6-(6-fluoro-2-methyl-1H-benzimidazol-1-yl)pyridin-2-amine] | 10 to 100 | 
Cc1nc2ccc(F)cc2n1-c1cccc(Nc2ccc(C#N)cc2)n1 [Cpd 609, 4-{[6-(6-fluoro-2-methyl-1H-benzimidazol-1-yl)pyridin-2-yl]amino}benzonitrile] | 100 to 3000 | 
COC(=O)c1ccc(Nc2cccc(-n3c(C)nc4ccc(F)cc43)n2)cc1 [Cpd 610, methyl 4-{[6-(6-fluoro-2-methyl-1H-benzimidazol-1-yl)pyridin-2-yl]amino}benzoate] | 10 to 100 | 
Cc1ccc(Nc2cc(C#N)cc(-n3c(C)nc4ccccc43)n2)cc1 [Cpd 634, 2-(2-methyl-1H-benzimidazol-1-yl)-6-[(4-methylphenyl)amino]pyridine-4-carbonitrile] | 10 to 100 | 
COc1ccc2nc(C(F)(F)F)c(-c3cncc(Nc4ccccc4)n3)n2c1 [Cpd 678, 6-[6-methoxy-2-(trifluoromethyl)imidazo[1,2-a]pyridin-3-yl]-N-phenylpyrazin-2-amine] | 10 to 100 | 
COc1ccc2nc(C(F)(F)F)c(-c3cncc(Nc4ccc(Cl)cc4)n3)n2c1 [Cpd 679, N-(4-chlorophenyl)-6-[6-methoxy-2-(trifluoromethyl)imidazo[1,2-a]pyridin-3-yl]pyrazin-2-amine] | 10 to 100 | 
COc1ccc2nc(C(F)(F)F)c(-c3cncc(Nc4ccc(Br)cc4)n3)n2c1 [Cpd 680, N-(4-bromophenyl)-6-[6-methoxy-2-(trifluoromethyl)imidazo[1,2-a]pyridin-3-yl]pyrazin-2-amine] | 10 to 100 | 
COc1ccc2nc(C(F)(F)F)c(-c3cncc(Nc4ccc(F)cc4)n3)n2c1 [Cpd 681, N-(4-fluorophenyl)-6-[6-methoxy-2-(trifluoromethyl)imidazo[1,2-a]pyridin-3-yl]pyrazin-2-amine] | 100 to 3000 | 
COc1ccc2nc(C(F)(F)F)c(-c3cncc(Nc4ccc(C)cc4)n3)n2c1 [Cpd 682, 6-[6-methoxy-2-(trifluoromethyl)imidazo[1,2-a]pyridin-3-yl]-N-(4-methylphenyl)pyrazin-2-amine] | 100 to 3000 | 
COc1ccc(Nc2cncc(-n3c(C)nc4ccccc43)n2)cc1Cl [compound 28, N-(3-chloro-4-methoxyphenyl)-6-(2-methyl-1H-benzimidazol-1-yl)pyrazin-2-amine] | 1 to 10 | 
COc1ccc(Nc2nc(-c3c(C(F)(F)F)nc4ccccn34)ccc2C#N)cc1 [compound 41, 2-[(4-methoxyphenyl)amino]-6-[2-(trifluoromethyl)imidazo[1,2-a]pyridin-3-yl]pyridine-3-carbonitrile] | 100 to 3000 | 
FC(F)(F)c1ccc(Nc2cncc(-c3c(C(F)(F)F)nn4ccccc34)n2)cc1 [compound 62, N-[4-(trifluoromethyl)phenyl]-6-[2-(trifluoromethyl)pyrazolo[1,5-a]pyridin-3-yl]pyrazin-2-amine] |  | 10 to 100
CSc1ccc(Nc2cncc(-c3c(C(F)(F)F)nc4ccccn34)n2)cc1 [compound 69, N-[4-(methylsulfanyl)phenyl]-6-[2-(trifluoromethyl)imidazo[1,2-a]pyridin-3-yl]pyrazin-2-amine] | 1 to 10 | 
FC(F)Oc1ccc(Nc2cncc(-c3c(C(F)(F)F)nn4ccccc34)n2)cc1 [compound 72, N-[4-(difluoromethoxy)phenyl]-6-[2-(trifluoromethyl)pyrazolo[1,5-a]pyridin-3-yl]pyrazin-2-amine] | 1 to 10 | 

Further lines, with some results ahead:

EC50 [1] [nM] | Compound | EC50 (read-out: ELISA EC50 value for Bmi-1 protein, Table 1, Bmi-1 sandwich ELISA) [nM]
10 to 100 | Cc1nc2ccc(F)cc2n1-c1cccc(Nc2ccc(C(F)(F)F)cc2)n1 [Cpd 607, 6-(6-fluoro-2-methyl-1H-benzimidazol-1-yl)-N-[4-(trifluoromethyl)phenyl]pyridin-2-amine] | 
10 to 100 | COc1ccc(Nc2cncc(-n3cnc4ccccc43)n2)cc1 [compound 1, 6-(1H-benzimidazol-1-yl)-N-(4-methoxyphenyl)pyrazin-2-amine] | 
10 to 100 | Ic1ccc(Nc2cncc(-n3cnc4ccccc43)n2)cc1 [compound 2, 6-(1H-benzimidazol-1-yl)-N-(4-iodophenyl)pyrazin-2-amine] | 
< 1 | COc1ccc(Nc2cncc(-n3c(C)nc4ccccc43)n2)cc1F [compound 12, N-(3-fluoro-4-methoxyphenyl)-6-(2-methyl-1H-benzimidazol-1-yl)pyrazin-2-amine] | 
10 to 100 | Cc1nc2ccccc2n1-c1cncc(Nc2ccc(C(F)(F)F)cc2)n1 [compound 13, 6-(2-methyl-1H-benzimidazol-1-yl)-N-[4-(trifluoromethyl)phenyl]pyrazin-2-amine] | 
100 to 3000 | FC(F)(F)c1ccc(Nc2cncc(-n3c(C(F)(F)F)nc4ccccc43)n2)cc1 [compound 14, 6-[2-(trifluoromethyl)-1H-benzimidazol-1-yl]-N-[4-(trifluoromethyl)phenyl]pyrazin-2-amine] | 
10 to 100 | FC(F)(F)c1ccc(Nc2cncc(-c3cccc4cc(C(F)(F)F)nn34)n2)cc1 [compound 15, N-[4-(trifluoromethyl)phenyl]-6-[2-(trifluoromethyl)pyrazolo[1,5-a]pyridin-7-yl]pyrazin-2-amine] | 
100 to 3000 | Cc1nc2ccccc2n1-c1cncc(Nc2ccc(OC(F)(F)F)cc2)n1 [compound 19, 6-(2-methyl-1H-benzimidazol-1-yl)-N-[4-(trifluoromethoxy)phenyl]pyrazin-2-amine] | 
10 to 100 | Cc1nc2ccccc2n1-c1cncc(Nc2ccc(Cl)cc2)n1 [compound 20, N-(4-chlorophenyl)-6-(2-methyl-1H-benzimidazol-1-yl)pyrazin-2-amine] | 
1 to 10 | Cc1nc2ccccc2n1-c1cncc(Nc2ccc(OC(F)F)cc2)n1 [compound 21, N-[4-(difluoromethoxy)phenyl]-6-(2-methyl-1H-benzimidazol-1-yl)pyrazin-2-amine] | 
1 to 10 | COc1ccc(Nc2cncc(-n3c(C(F)(F)F)nc4ccccc43)n2)cc1 [compound 43, N-(4-methoxyphenyl)-6-[2-(trifluoromethyl)-1H-benzimidazol-1-yl]pyrazin-2-amine] | 
10 to 100 | FC(F)Oc1ccc(Nc2cncc(-n3c(C(F)(F)F)nc4ccccc43)n2)cc1 [compound 44, N-[4-(difluoromethoxy)phenyl]-6-[2-(trifluoromethyl)-1H-benzimidazol-1-yl]pyrazin-2-amine] | 
1 to 10 | CCc1nc2ccccc2n1-c1cncc(Nc2ccc(C(F)(F)F)cc2)n1 [compound 51, 6-(2-ethyl-1H-benzimidazol-1-yl)-N-[4-(trifluoromethyl)phenyl]pyrazin-2-amine] | 
10 to 100 | CC(C)c1nc2ccccc2n1-c1cncc(Nc2ccc(C(F)(F)F)cc2)n1 [compound 52, 6-[2-(propan-2-yl)-1H-benzimidazol-1-yl]-N-[4-(trifluoromethyl)phenyl]pyrazin-2-amine] | 
10 to 100 | CCCc1nc2ccccc2n1-c1cncc(Nc2ccc(C(F)(F)F)cc2)n1 [compound 53, 6-(2-propyl-1H-benzimidazol-1-yl)-N-[4-(trifluoromethyl)phenyl]pyrazin-2-amine] | 
10 to 100 | CSc1nc2ccccc2n1-c1cncc(Nc2ccc(C(F)(F)F)cc2)n1 [compound 54, 6-[2-(methylsulfanyl)-1H-benzimidazol-1-yl]-N-[4-(trifluoromethyl)phenyl]pyrazin-2-amine] | 
1 to 10 | CNc1nc2ccccc2n1-c1cncc(Nc2ccc(C(F)(F)F)cc2)n1 [compound 61, N-methyl-1-(6-{[4-(trifluoromethyl)phenyl]amino}pyrazin-2-yl)-1H-benzimidazol-2-amine] | 
10 to 100 | FC(F)(F)Oc1ccc(Nc2cncc(-c3c(C(F)(F)F)nn4ccccc34)n2)cc1 [compound 63, N-[4-(trifluoromethoxy)phenyl]-6-[2-(trifluoromethyl)pyrazolo[1,5-a]pyridin-3-yl]pyrazin-2-amine] | 
100 to 3000 | COCc1nc2ccccc2n1-c1cncc(Nc2ccc(C(F)(F)F)cc2)n1 [compound 65, 6-[2-(methoxymethyl)-1H-benzimidazol-1-yl]-N-[4-(trifluoromethyl)phenyl]pyrazin-2-amine] | 
100 to 3000 | OCc1nc2ccccc2n1-c1cncc(Nc2ccc(C(F)(F)F)cc2)n1 [compound 66, [1-(6-{[4-(trifluoromethyl)phenyl]amino}pyrazin-2-yl)-1H-benzimidazol-2-yl]methanol] | 
10 to 100 | Cc1nc2ccccc2n1-c1cncc(Nc2ccc(C(F)(F)F)nc2)n1 [compound 73, 6-(2-methyl-1H-benzimidazol-1-yl)-N-[6-(trifluoromethyl)pyridin-3-yl]pyrazin-2-amine] | 
< 1 | COc1ccc(Nc2cncc(-c3c(C(F)(F)F)nn4ccccc34)n2)cc1 [compound 74, N-(4-methoxyphenyl)-6-[2-(trifluoromethyl)pyrazolo[1,5-a]pyridin-3-yl]pyrazin-2-amine] | 
1 to 10 | Cc1ccc(Nc2cncc(-c3c(C(F)(F)F)nn4ccccc34)n2)cc1 [compound 75, N-(4-methylphenyl)-6-[2-(trifluoromethyl)pyrazolo[1,5-a]pyridin-3-yl]pyrazin-2-amine] | 
100 to 3000 | Nc1nc2ccccc2n1-c1cncc(Nc2ccc(C(F)(F)F)cc2)n1 [compound 76, 1-(6-{[4-(trifluoromethyl)phenyl]amino}pyrazin-2-yl)-1H-benzimidazol-2-amine] | 
